# Patent US5468469A, “Methods of using azo dyes and their derivatives” (The United States of America as represented by the …, priority 1994, dated 1995)
# Tests used:
# HIV isolate LAV-1BR = experiment: HIV replication in phytohemagglutinin-stimulated human PBL, intracellular p24 ELISA; type: cell-based; details: six days culture; for pg/ml HIV p24: virus only 101,000
# Text: The ability of the azo dyes to negatively affect HIV replication was verified after six days of culturing the HIV isolate LAV-1BR in phytohemagglutinin-stimulated human PBL. For this experiment, the amount of intracellular HIV p24 protein in cell lysates was quantitated with use of an HIV p24 enzyme linked immunosorbent assay kit (Cellular Products, Buffalo, N.Y.) as described in Anand et al., AIDS Res. Human Retrovir., 6, 679-689 (1990). This measure of p24 protein was considered an indication of HIV replication. Aurintricarboxylic acid (ATA; Sigma Chemical Co., St. Louis, Mo.) was included in this experiment as a positive control, and the solvent DMSO was utilized for further comparative purposes.
# CD4 [1] = target: T1, CD4 (Homo sapiens, UniProt P01730); experiment: Dose-response of inhibition of αCD4 binding in presence (RPMI 1640 with 5% serum) and absence (PBS) of serum; details: RPMI 1640 with 5% serum versus PBS; FIG. 1
# T1 construct: PBL were prepared by density gradient centrifugation; endogenous in cells; host or cells: human peripheral blood lymphocytes (PBL)
# Method: (§1) For these binding assays, PBL were prepared by density gradient centrifugation, and the effect of the azo dyes on the binding of anti-CD4-FITC (Becton Dickinson, Mountain View, Calif.) was measured (Weaver et al., supra). Cells were treated with an azo dye for at least 10 minutes at room temperature, or for more than 30 minutes at 4° C., and were then contacted with FITC-labeled antibody. Binding was measured by quantitating cell bound fluorescence using flow cytometry.
# CD4 [2] = target: T1, CD4; experiment: Inhibition of binding of αCD4-FITC (anti-Leu3a) to PBL, flow cytometry
# Method: as §1
# [3] = target: T2, HIV rgp120 binding to CD4 (Homo sapiens, UniProt P01730); experiment: Inhibition of HIV rgp120 binding to CD4 on PBL, detected with anti-rgp120-FITC; details: PBS, % logarithmic mean channel number of rgp120 binding detected by αrgp120-FITC
# T2 construct: PBL were prepared by density gradient centrifugation; endogenous in cells; host or cells: human peripheral blood lymphocytes (PBL)
# Method: as §1, with “Since anti-Leu3a (αCD4) and recombinant HIV coat protein (rgp120) bind to the same site on the CD4 molecule, interference in binding of CD4 confirms interference in HIV binding to αCD4 (Weaver et al., AIDS Res. Human Retrovir., 6, 1125-1130 (1990)). For” for “For”
# The ability of Direct Orange 26, Direct Red 23, Direct Red 24, and Direct Red 26 to inhibit the binding of HIV rgp120 to CD4 was determined using monoclonal anti-rgp120-FITC (Genentech, Inc., San Francisco, Calif.) to detect recombinant HIV coat protein in the binding assay described in Example 1.
# [4] = target: T3, CD8 (αCD8 binding to PBL) (Homo sapiens, UniProt P01732); experiment: Specificity: binding of αCD8-FITC to PBL; details: PBS, % logarithmic mean channel number of αCD8-FITC binding, read-out: % Control Binding (αCD8)
# T3 construct: endogenous in cells; host or cells: human peripheral blood lymphocytes (PBL)
# T3 sequence (P01732 22-235): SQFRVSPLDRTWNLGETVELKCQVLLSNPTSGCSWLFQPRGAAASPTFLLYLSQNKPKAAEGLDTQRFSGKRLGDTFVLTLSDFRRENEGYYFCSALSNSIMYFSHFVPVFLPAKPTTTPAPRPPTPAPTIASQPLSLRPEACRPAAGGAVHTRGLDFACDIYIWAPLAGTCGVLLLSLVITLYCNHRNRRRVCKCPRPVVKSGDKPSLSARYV
# T3 sequence (P10966 22-210 partner): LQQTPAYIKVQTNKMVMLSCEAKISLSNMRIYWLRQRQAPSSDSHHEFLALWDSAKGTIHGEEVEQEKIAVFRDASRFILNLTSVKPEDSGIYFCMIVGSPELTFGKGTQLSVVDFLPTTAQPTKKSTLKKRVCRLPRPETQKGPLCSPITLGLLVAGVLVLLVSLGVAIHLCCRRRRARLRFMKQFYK
# Method: as §1, with “Since anti-Leu3a (αCD4) and recombinant HIV coat protein (rgp120) bind to the same site on the CD4 molecule, interference in binding of CD4 confirms interference in HIV binding to αCD4 (Weaver et al., AIDS Res. Human Retrovir., 6, 1125-1130 (1990)). For” for “For”
# The specificity of the dyes was confirmed by testing their ability to interfere with the binding of two other monoclonal antibodies, αCD3 and αCD8, to PBL using the binding assay described in Example 1.
# [5] = target: T4, CD3 (αCD3 binding to PBL) (Homo sapiens, UniProt P07766); experiment: Specificity: binding of αCD3-FITC to PBL; details: PBS, % logarithmic mean channel number of αCD3-FITC binding, read-out: % Control Binding (αCD3)
# T4 construct: endogenous in cells; host or cells: human peripheral blood lymphocytes (PBL)
# T4 sequence (P07766 23-207): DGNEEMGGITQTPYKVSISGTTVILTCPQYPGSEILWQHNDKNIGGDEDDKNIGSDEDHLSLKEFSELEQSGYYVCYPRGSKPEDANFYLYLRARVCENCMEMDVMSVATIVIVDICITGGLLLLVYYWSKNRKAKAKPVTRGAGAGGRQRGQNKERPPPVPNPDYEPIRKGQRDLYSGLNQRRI
# T4 sequence (P04234 22-171 partner): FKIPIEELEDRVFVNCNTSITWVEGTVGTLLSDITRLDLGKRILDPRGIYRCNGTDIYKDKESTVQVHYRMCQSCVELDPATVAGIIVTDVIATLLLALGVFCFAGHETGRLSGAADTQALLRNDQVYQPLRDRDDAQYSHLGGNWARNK
# T4 sequence (P09693 23-182 partner): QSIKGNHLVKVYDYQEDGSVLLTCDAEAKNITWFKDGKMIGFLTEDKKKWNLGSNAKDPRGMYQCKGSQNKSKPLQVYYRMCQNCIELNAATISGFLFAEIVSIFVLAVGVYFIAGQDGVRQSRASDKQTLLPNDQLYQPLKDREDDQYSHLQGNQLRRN
# T4 sequence (P20963 22-164 partner): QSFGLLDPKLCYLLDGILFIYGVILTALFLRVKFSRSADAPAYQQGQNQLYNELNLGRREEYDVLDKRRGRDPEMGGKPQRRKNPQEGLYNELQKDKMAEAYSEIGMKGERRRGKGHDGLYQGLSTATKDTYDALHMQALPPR
# [6] = Viability of PBL after 72 hour culture with αTCR stimulation, propidium iodide exclusion; type: cell-based, human; details: pbl
# Method: (§2) Cells were then washed once in PBS, and resuspended in PBS with 3 μg/ml propidium iodide. After 10 minutes incubation, the cells were analyzed by flow cytometry. Live cells were defined as those excluding propidium iodide.
# PBL = experiment: as above; type: cell-based, human
# Method: as §2
# [7] = read-out: % Control Binding (HIV rgp120)
# [8] = 20 μM, PBS, % logarithmic mean channel number of αCD4-FITC binding
compound,measurement,setting,value
"O=C(O)C1=CC(=C(c2ccc(O)c(C(=O)O)c2)c2ccc(O)c(C(=O)O)c2)C=CC1=O [ATA, Aurintricarboxylic acid, reference compound]",pg/ml HIV p24,HIV isolate LAV-1BR; 50 μg/ml,1 pg/mL
O=S(=O)([O-])c1ccc2c(N=Nc3ccccc3)ccc(N=Nc3ccc(Nc4ccccc4)c4c(S(=O)(=O)[O-])cccc34)c2c1.[Na+].[Na+] [Acid Blue 116],Fold more dye needed to inhibit αCD4 binding in the presence of serum,CD4 [1],about 100 ×
Cc1ccccc1N=Nc1ccc(N=Nc2c(O)c(S(=O)(=O)[O-])cc3cc(S(=O)(=O)[O-])ccc23)c(C)c1.[Na+].[Na+] [Acid Red 115],Fold more dye needed to inhibit αCD4 binding in the presence of serum,CD4 [1],about 100 ×
O=C(Nc1ccc2c(O)c(N=Nc3ccccc3)c(S(=O)(=O)O)cc2c1)Nc1ccc2c(O)c(N=Nc3ccccc3)c(S(=O)(=O)O)cc2c1 [Direct Orange 26],Inhibition of the binding of αCD4 to CD4 (in words),CD4 [2]; 10 μM,completely inhibited
same,remaining activity at 10 µM,"CD4 [2]; 10 μM, PBS, % logarithmic mean channel number of αCD4-FITC binding, read-out: % Control Binding (αCD4)",0%
same,remaining activity at 1 µM,[3]; [7],26%
same,remaining activity at 2.5 µM,"[3]; 2.5 μM, read-out: % Control Binding (HIV rgp120)",15%
same,Fold more dye needed to inhibit αCD4 binding in the presence of serum,CD4 [1],about 5 ×
same,remaining activity at 10 µM,[4],65%
same,remaining activity at 10 µM,[5],103%
same,"viability at 72 h, 400 µM","[6]; 400 μM, untreated 78.2, read-out: % Viable Cells",67.5%
same,"viability at 72 h, 800 µM","[6]; 800 μM, untreated 78.2, read-out: % Viable Cells",71.5%
same,cytotoxicity at 72 h,"[6]; 400-800 μM, read-out: Reduction of viability",≤ 10%
same,Effect on PBL viability / lymphocyte proliferation (in words),PBL,only a slight negative effect
same,pg/ml HIV p24,HIV isolate LAV-1BR; 50 μg/ml,71 pg/mL
same,pg/ml HIV p24,HIV isolate LAV-1BR; 100 μg/ml,61 pg/mL
same,Effect on HIV replication (in words),HIV isolate LAV-1BR; 50-100 μg/ml,strongly decrease HIV replication
CC(=O)Nc1ccc(N=Nc2c(S(=O)(=O)O)cc3cc(NC(=O)Nc4ccc5c(O)c(N=Nc6ccccc6)c(S(=O)(=O)O)cc5c4)ccc3c2O)cc1 [Direct Red 23],Inhibition of the binding of αCD4 to CD4 (in words),CD4 [2]; 20 μM,completely inhibited
same,remaining activity at 20 µM,"CD4 [2]; 20 μM, PBS, % logarithmic mean channel number of αCD4-FITC binding, read-out: % Control Binding (αCD4)",0%
same,remaining activity at 5 µM,"[3]; 5.0 μM, read-out: % Control Binding (HIV rgp120)",10 to 15%
COc1ccccc1N=Nc1c(S(=O)(=O)[O-])cc2cc(NC(=O)Nc3ccc4c(O)c(N=Nc5ccc(S(=O)(=O)[O-])cc5C)c(S(=O)(=O)[O-])cc4c3)ccc2c1O.[Na+].[Na+].[Na+] [Direct Red 24],Inhibition of the binding of αCD4 to CD4 (in words),CD4 [2]; 20 μM,completely inhibited
same,% Control Binding (αCD4),CD4 [2]; [8],0%
same,% Control Binding (HIV rgp120),[3]; 5.0 μM,10-15%
COc1cc(N=Nc2cc(S(=O)(=O)[O-])cc3cc(S(=O)(=O)[O-])cc(O)c23)c(C)cc1NC(=O)Nc1cc(C)c(N=Nc2cc(S(=O)(=O)[O-])cc3cc(S(=O)(=O)[O-])cc(O)c23)cc1OC.[Na+].[Na+].[Na+].[Na+] [Direct Red 79],Fold more dye needed to inhibit αCD4 binding in the presence of serum,CD4 [1],about 100 ×
"Cc1cc(-c2ccc(/N=N/c3ccc4c(S(=O)(=O)O)cc(S(=O)(=O)O)c(N)c4c3O)c(C)c2)ccc1/N=N/c1ccc2c(S(=O)(=O)O)cc(S(=O)(=O)O)c(N)c2c1O [Evans Blue, Evans blue, reference compound]",% Control Binding (αCD4),"CD4 [2]; 1 μM, PBS, % logarithmic mean channel number of αCD4-FITC binding",1%
same,remaining activity at 1 µM,"CD4 [2]; 1 μM, PBS, % logarithmic mean channel number of αCD4-FITC binding, read-out: % Control Binding (αCD4)",1%
same,remaining activity at 1 µM,[3]; [7],8%
Direct Red 26,Inhibition of the binding of αCD4 to CD4 (in words),CD4 [2]; 20 μM,completely inhibited
same,% Control Binding (αCD4),CD4 [2]; [8],0%
same,% Control Binding (HIV rgp120),[3]; 5.0 μM,10-15%
